One assay relates to Mv4-11 cells. Kind of assay: Inhibition of the proliferation of Mv4-11 cells (CCK8). The assay is classed as cell-based. As to the method:
The inhibition effect of the compounds of the present disclosure on the proliferation of Mv4-11 cells (ATCC:CRL-9591™) in vitro was determined by the following method:
1) Cell inoculation: Mv4-11 cells with good growing state in logarithmic growth phase were inoculated into a 96-well plate at 20000 cells per well and 50 uL, and cultured at 37° C. and under 5% CO2 condition for 2-4 h.
2) Administration: The compound was diluted with 1640 medium containing 10% FBS and 1% PS: 0.4 uL of the compound with an initial concentration of 1 mM was placed in a dilution plate, each added with 199.6 uL of the above culture medium, and gradiently diluted 4-fold, so that the final concentration in the added cell was 1000, 250, 62.5, 15.625, 3.91, 0.98, 0.24, 0.06 nM. 50 µL of the medium containing the compound was sequentially added, and it was placed in a 37° C., 5% CO2 cell incubator for 48 hours.
3) Detection: 10uL CCK8 (Dojindo, CK 04) solution was added to each well, incubated in 37° C. 5% CO2 cell incubator for 2 hours, and then the OD450 value was read by Synegry H1(BioTek) multimode microplate reader.
4) Calculation: The IC50 value was calculated using Graphpad prism 5.0 software according to the concentration of the compound and the corresponding signal value.

The next assay concerns the target T1, CDK7 (Homo sapiens, UniProt P50613).
T1 construct: purchased Eurofilns (sic; Eurofins) 14-476 M
The assay is described as follows: Inhibitory effect on the kinase activity of CDK7 in vitro (Caliper). The format is biochemical. To be noted: 77 uM ATP, 0.2 ug/uL CTD3 peptide; read-out: CDK 7 IC50. As to the method:
(§1) The detection of the inhibitory effect of the compounds of the present disclosure on the kinase activity of CDK7/CDK9 in vitro was determined by the following method:
(§2) 1) The compound was accurately weighed and dissolved in DMSO (Sigma, D2650) to a concentration of 100 mM for later use. The compound was diluted to 5-fold of a desired highest concentration, and diluted 4-fold into 6 concentration gradients, allowing the final concentration of the compound in the reaction system to be CDK7: 3000, 750, 188, 47, 12, 3 nM; CDK9: 100, 25, 6.25, 1.56, 0.39, 0.098 nM. 5 ul was taken to a 384-well plate (Corning, 4512).
(§3) 2) Kinase reaction: 10uL protein kinase (CDK7: Eurofilns,14-476 M; CDK9: Millipore,14-685 M) solution was added to the 384-well plate (Corning, 4512) containing the compound, and allowed to stand at room temperature for 10 min; a mixed solution of ATP(Sigma, A7699) and substrate polypeptide (CDK7: 77 uM ATP&0.2ug/uL CTD3 peptide (GL Biochem,SY356885); CDK9: 10 uM ATP&0.2 ug/uL CTD3 peptide (GL Biochem,SY356885)) was added, and allowed to stand at 28° C. for a short time; and then a stop solution was added to terminate the reaction at 25 uL per well.
(§4) 3) Detection: Data was collected by Caliper.
(§5) 4) Calculation: The IC50 value was calculated by Graphpad prism 5.0 software according to the concentration of the compound and the corresponding signal value.

The target of a further assay is T2, CDK9 (Homo sapiens, UniProt P50750).
T2 construct: purchased Millipore 14-685 M
The assay is described as follows: Inhibitory effect on the kinase activity of CDK9 in vitro (Caliper). The assay is classed as biochemical. The settings on record: 10 uM ATP, 0.2 ug/uL CTD3 peptide; read-out: CDK 9 IC50. As to the method: as §1, §2, §3, §4, §5

pIC50: −log10 of the molar value.

T2 sequence (P50750 whole entry): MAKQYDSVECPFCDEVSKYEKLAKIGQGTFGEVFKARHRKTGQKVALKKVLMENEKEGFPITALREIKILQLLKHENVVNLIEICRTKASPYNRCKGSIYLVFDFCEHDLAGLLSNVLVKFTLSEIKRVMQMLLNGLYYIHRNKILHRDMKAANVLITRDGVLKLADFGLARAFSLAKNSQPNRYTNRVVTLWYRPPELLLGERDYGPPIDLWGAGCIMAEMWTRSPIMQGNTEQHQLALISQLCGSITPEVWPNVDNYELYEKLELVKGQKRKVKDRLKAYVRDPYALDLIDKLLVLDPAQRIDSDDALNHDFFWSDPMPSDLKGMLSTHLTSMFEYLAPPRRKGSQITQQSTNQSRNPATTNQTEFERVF
T2 sequence (O60563 whole entry partner): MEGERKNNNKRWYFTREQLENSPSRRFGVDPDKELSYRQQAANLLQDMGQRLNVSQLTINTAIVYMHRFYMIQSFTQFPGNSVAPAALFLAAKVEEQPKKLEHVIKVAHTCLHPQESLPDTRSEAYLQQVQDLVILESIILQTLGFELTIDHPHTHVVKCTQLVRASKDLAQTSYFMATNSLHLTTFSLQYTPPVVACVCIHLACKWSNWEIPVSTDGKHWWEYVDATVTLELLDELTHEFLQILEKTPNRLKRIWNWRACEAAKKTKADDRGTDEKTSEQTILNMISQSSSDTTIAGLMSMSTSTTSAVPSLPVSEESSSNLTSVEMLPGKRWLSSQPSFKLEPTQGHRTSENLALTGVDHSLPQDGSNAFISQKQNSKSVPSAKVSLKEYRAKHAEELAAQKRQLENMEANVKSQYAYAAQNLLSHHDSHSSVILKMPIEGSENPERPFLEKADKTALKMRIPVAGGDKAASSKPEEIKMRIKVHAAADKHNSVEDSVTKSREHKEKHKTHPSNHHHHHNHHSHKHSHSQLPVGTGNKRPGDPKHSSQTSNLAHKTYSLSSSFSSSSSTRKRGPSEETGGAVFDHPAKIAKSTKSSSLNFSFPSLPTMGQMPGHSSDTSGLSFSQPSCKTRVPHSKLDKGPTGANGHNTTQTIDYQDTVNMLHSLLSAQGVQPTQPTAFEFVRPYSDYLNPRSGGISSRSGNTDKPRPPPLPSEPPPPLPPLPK
T1 sequence (P50613 whole entry): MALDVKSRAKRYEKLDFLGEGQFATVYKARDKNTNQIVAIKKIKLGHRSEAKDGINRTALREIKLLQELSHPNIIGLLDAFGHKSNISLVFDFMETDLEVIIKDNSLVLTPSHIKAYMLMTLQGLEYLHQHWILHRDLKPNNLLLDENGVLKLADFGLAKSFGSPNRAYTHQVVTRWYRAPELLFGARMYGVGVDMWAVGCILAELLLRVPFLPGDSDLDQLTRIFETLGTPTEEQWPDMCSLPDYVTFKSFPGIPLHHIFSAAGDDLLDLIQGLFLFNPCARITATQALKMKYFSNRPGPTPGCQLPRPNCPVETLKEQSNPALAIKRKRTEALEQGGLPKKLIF
T1 sequence (P51946 whole entry partner): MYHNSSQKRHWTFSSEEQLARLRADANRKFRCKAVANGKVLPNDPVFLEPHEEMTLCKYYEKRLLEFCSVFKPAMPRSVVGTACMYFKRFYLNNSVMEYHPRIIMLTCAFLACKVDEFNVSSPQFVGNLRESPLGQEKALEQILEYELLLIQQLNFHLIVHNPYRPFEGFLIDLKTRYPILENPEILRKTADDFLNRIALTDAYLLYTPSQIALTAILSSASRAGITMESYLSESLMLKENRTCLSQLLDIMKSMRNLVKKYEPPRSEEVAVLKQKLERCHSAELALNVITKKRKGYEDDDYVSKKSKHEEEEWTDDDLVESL
T1 sequence (P51948 whole entry partner): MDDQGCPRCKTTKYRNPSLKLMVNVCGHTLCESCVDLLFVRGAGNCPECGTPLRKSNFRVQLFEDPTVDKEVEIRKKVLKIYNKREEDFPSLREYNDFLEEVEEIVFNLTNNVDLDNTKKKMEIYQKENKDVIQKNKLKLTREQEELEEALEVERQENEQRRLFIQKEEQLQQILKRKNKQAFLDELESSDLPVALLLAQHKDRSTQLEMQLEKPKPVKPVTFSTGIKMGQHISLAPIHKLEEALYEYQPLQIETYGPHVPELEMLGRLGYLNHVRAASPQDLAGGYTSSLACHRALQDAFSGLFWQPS

As for `C[C@H](C(=O)Nc1cc(-c2cnn3c2CC(C)(C)C3)c(Cl)cn1)c1ccc(-c2cccnc2)nc1` [Compound 19-1, (S)-2-([2,3′-bipyridin]-5-yl)-N-(5-chloro-4-(5,5-dimethyl-5,6-dihydro-4H-pyrrolo[1,2-b]pyrazol-3-yl)pyridin-2-yl)propionamide (assumed)], the pIC50 with Mv4-11 cells (48 hours) was 7.86.

Regarding `CC(=O)Nc1cccc(CC(=O)Nc2cc(-c3cnn4c3CC(C)(C)C4)c(Cl)cn2)c1` [Compound 8, 2-(3-acetylaminophenyl)-N-(5-chloro-4-(5,5-dimethyl-5,6-dihydro-4H-pyrrolo[1,2-b]pyrazol-3-yl)pyridin-2-yl)acetamide], the pIC50 on CDK7 is 6.94; in the assay with Mv4-11 cells (Homo sapiens, MV4-11, 48 h), 7.71; on CDK9 it was 8.47.

For the compound `C=CC(=O)NCc1ccc(-c2ccc([C@@H](C)C(=O)Nc3cc(-c4cnn5c4CC(C)(C)C5)c(Cl)cn3)cn2)cn1` [Compound 20-2, (R)-N-((5-(1-((5-chloro-4-(5,5-dimethyl-5,6-dihydro-4H-pyrrolo[1,2-b]pyrazol-3-yl)pyridin-2-yl)amino)-1-oxopropan-2-yl)-[2,3′ -bipyridin]-6′-yl)methyl)acrylamide (assumed)], in the assay on Mv4-11 cells (Homo sapiens, MV4-11, 48 h), the pIC50 is 6.07.

For `COc1cc([C@H](C)C(=O)Nc2cc(-c3cnn4c3CC(C)(C)C4)c(Cl)cn2)ccn1` [Compound 16-1, (S)-N-(5-chloro-4-(5,5-dimethyl-5,6-dihydro-4H-pyrrolo[1,2-b]pyrazol-3-yl)pyridin-2-yl)-2-(2-methoxypyridin-4-yl)propionamide (assumed)], the pIC50 in the assay with Mv4-11 cells (Homo sapiens, MV4-11, 48 h) is 8.19; on CDK9, 8.47.

On to `CC1(C)Cc2c(-c3cc(NC(=O)Cc4cccc(C#N)c4)ncc3Cl)cnn2C1` [Compound 4, N-(5-chloro-4-(5,5-dimethyl-5,6-dihydro-4 H-pyrrolo[1,2-b]pyrazol-3-yl)pyridin-2-yl) -2-(3-cyanophenyl)acetamide], for which the negative-log IC50 (pIC50) in the assay with Mv4-11 cells (Homo sapiens, MV4-11, 48 h) is 7.97.

Regarding `CC1(C)Cc2c(-c3cc(NC(=O)Cc4cccc(NC(=O)CC#N)c4)ncc3Cl)cnn2C1` [Compound 9, N-(5-chloro-4-(5,5-dimethyl-5,6-dihydro-4 H-pyrrolo[1,2-b]pyrazol-3-yl)pyridin-2-yl) -2-(3-(2-cyanoacetylamino)phenyl)acetamide], the pIC50 with Mv4-11 cells (Homo sapiens, MV4-11, 48 h) is 7.89.

For `CC1(C)Cc2c(-c3cc(NC(=O)Cc4cccc(C#N)n4)ncc3Cl)cnn2C1` [Compound 7, N-(5-chloro-4-(5,5-dimethyl-5,6-dihydro-4 H-pyrrolo[1,2-b]pyrazol-3-yl)pyridin-2-yl) -2-(6-cyanopyridin-2-yl)acetamide], the pIC50 at CDK7 was 6.93; in the assay on Mv4-11 cells (Homo sapiens, MV4-11, 48 h) it was 8.09; on CDK9, 8.77.

As to `C[C@@H](C(=O)Nc1cc(-c2cnn3c2CC(C)(C)C3)c(Cl)cn1)c1ccnc(C(C)(C)O)c1` [Compound 18-2, (R)-N-(5-chloro-4-(5,5-dimethyl-5,6-dihydro-4H-pyrrolo[1,2-b]pyrazol-3-yl)pyridin-2-yl)-2-(2-(2-hydroxypropan-2-yl)pyridin-4-yl)propionamide (assumed)], the pIC50 on CDK7 was 7.13; in the assay with Mv4-11 cells (Homo sapiens, MV4-11, 48 h), 7.60; on CDK9 it was 8.52.

As to `COc1cc([C@@H](C)C(=O)Nc2cc(-c3cnn4c3CC(C)(C)C4)c(Cl)cn2)ccn1` [Compound 16-2, (R)-N-(5-chloro-4-(5,5-dimethyl-5,6-dihydro-4H-pyrrolo[1,2-b]pyrazol-3-yl)pyridin-2-yl)-2-(2-methoxypyridin-4-yl)propionamide (assumed)], in the assay with Mv4-11 cells (Homo sapiens, MV4-11, 48 h), the pIC50 is 6.33.

For the compound `CC1(C)Cc2c(-c3cc(NC(=O)Cc4cccnc4)ncc3Cl)cnn2C1` [Compound 6, N-(5-chloro-4-(5,5-dimethyl-5,6-dihydro-4 H-pyrrolo[1,2-b]pyrazol-3-yl)pyridin-2-yl) -2-(pyridin-3-yl)acetamide], the pIC50 at CDK7 was 6.71; in the assay with Mv4-11 cells (Homo sapiens, MV4-11, 48 h), 8.00; at CDK9, 8.51.

In the case of `CC(=O)Nc1cccc([C@@H](C)C(=O)Nc2cc(-c3cnn4c3CC(C)(C)C4)c(Cl)cn2)c1` [Compound 14-2, (R)-2-(3-acetylaminophenyl)-N-(5-chloro-4-(5,5-dimethyl-5,6-dihydro-4H-pyrrolo[1,2-b]pyrazol-3-yl)pyridin-2-yl)propionamide (assumed)], the negative logarithm of the IC50 (pIC50) in the assay on Mv4-11 cells (Homo sapiens, MV4-11, 48 h) is 6.87.

`CC(=O)Nc1cccc([C@H](C)C(=O)Nc2cc(-c3cnn4c3CC(C)(C)C4)c(Cl)cn2)c1` [Compound 14-1, (S)-2-(3-acetylacetylaminophenyl)-N-(5-chloro-4-(5,5-dimethyl-5,6-dihydro-4H-pyrrolo [1,2-b]pyrazol-3-yl)pyridin-2-yl)propionamide (assumed)]: the pIC50 in the assay on Mv4-11 cells (Homo sapiens, MV4-11, 48 h) is 8.00; on CDK9 it was 8.64.

As for `CC1(C)Cc2c(-c3cc(NC(=O)Cc4cccc(C(N)=O)c4)ncc3Cl)cnn2C1` [Compound 1, 3-(2-((5-chloro-4-(5,5-dimethyl-5,6-dihydro-4H-pyrrolo[1,2-b]pyrazol-3-yl)pyridin-2-yl)amino)-2-oxoethyl)benzamide], the pIC50 was 7.02 at CDK7; 8.13 in the assay with Mv4-11 cells (Homo sapiens, MV4-11, 48 h); 8.52 on CDK9.

On to `COc1ccc(CC(=O)Nc2cc(-c3cnn4c3CC(C)(C)C4)c(Cl)cn2)cn1` [Compound 12, N-(5-chloro-4-(5,5-dimethyl-5,6-dihydro-4 H-pyrrolo[1,2-b]pyrazol-3-yl)pyridin-2-yl) -2-(6-methoxypyridin-3-yl)acetamide], for which the negative-log IC50 (pIC50) in the assay with Mv4-11 cells (Homo sapiens, MV4-11, 48 h) is 7.91; on CDK9, 8.28.

With `CC1(C)Cc2c(-c3cc(NC(=O)Cc4ccncc4)ncc3Cl)cnn2C1` [Compound 5, N-(5-chloro-4-(5,5-dimethyl-5,6-dihydro-4 H-pyrrolo[1,2-b]pyrazol-3-yl)pyridin-2-yl) -2-(pyridin-4-yl)acetamide], the pIC50 in the assay with Mv4-11 cells (Homo sapiens, MV4-11, 48 h) was 7.59.

With `CC(=O)N[C@@H]1CCC[C@H](C(=O)Nc2cc(-c3cnn4c3CC(C)(C)C4)c(Cl)cn2)C1` [AZD4573, reference compound], the negative-log IC50 (pIC50) on CDK7 was 6.96; in the assay on Mv4-11 cells (Homo sapiens, MV4-11, 48 h) it was 8.38.

On to `C[C@@H](C(=O)Nc1cc(-c2cnn3c2CC(C)(C)C3)c(Cl)cn1)c1ccnc(C#N)c1` [Compound 15-2, (R)-N-(5-chloro-4-(5,5-dimethyl-5,6-dihydro-4H-pyrrolo[1,2-b]pyrazol-3-yl)pyridin-2-yl)-2-(2-cyanopyridin-4-yl)propionamide (assumed)], for which the pIC50 with Mv4-11 cells (Homo sapiens, MV4-11, 48 h) is 6.79.

Regarding `C[C@H](C(=O)Nc1cc(-c2cnn3c2CC(C)(C)C3)c(Cl)cn1)c1ccnc(C#N)c1` [Compound 15-1, (S)-N-(5-chloro-4-(5,5-dimethyl-5,6-dihydro-4H-pyrrolo[1,2-b]pyrazol-3-yl)pyridin-2-yl)-2-(2-cyanopyridin-4-yl)propionamide (assumed)], the pIC50 in the assay on Mv4-11 cells (Homo sapiens, MV4-11, 48 h) was 7.95; at CDK9, 8.23.

In the assay with Mv4-11 cells (Homo sapiens, MV4-11, 48 h), `C[C@H](C(=O)Nc1cc(-c2cnn3c2CC(C)(C)C3)c(Cl)cn1)c1cccnc1` [Compound 11-1, (S)-N-(5-chloro-4-(5,5-dimethyl-5,6-dihydro-4H-pyrrolo[1,2-b]pyrazol-3-yl)pyridin-2-yl)-2-(pyridin-3-yl)propionamide (assumed)] gave a pIC50 of 6.05.

In the case of `C[C@H](C(=O)Nc1cc(-c2cnn3c2CC(C)(C)C3)c(Cl)cn1)c1cccc(C(N)=O)c1` [Compound 2-1, (S)-3-(1-((5-chloro-4-(5,5-dimethyl-5,6-di hydro-4H-pyrrolo[1,2-b]pyrazol-3-yl)pyridin-2-yl)amino)-1-oxopropan-2-yl)benzamide (assumed)], in the assay with Mv4-11 cells (Homo sapiens, MV4-11, 48 h), the pIC50 is less than 6.00.

The values are drawn from patent publication US20230219961A1, “Pyridine acetamide derivative serving as CDK inhibitor, and preparation method therefor and use thereof” (Suzhou AlphaMa Biotechnology Co., Ltd., priority 2020, published 2023).
